Assay results taken from ChEMBL document CHEMBL1138451, “Significance of interactions of BACE1-Arg235 with its ligands and design of BACE1 inhibitors with P2 pyridine scaffold” (Bioorg Med Chem Lett, 2009).

Experiments:
Beta-secretase 1 [1] = target: T1, Beta-secretase 1 (Homo sapiens, UniProt P56817); test: Inhibition of human recombinant Arg235 region of BACE1 at 2 uM by FRET assay
Beta-secretase 1 [2] = target: T1, Beta-secretase 1; test: Inhibition of human recombinant Arg235 region of BACE1 by FRET assay
Beta-secretase 1 [3] = target: T1, Beta-secretase 1; test: Inhibition of human recombinant Arg235 region of BACE1 at 0.2 uM by FRET assay

T1 sequence (P56817 whole entry): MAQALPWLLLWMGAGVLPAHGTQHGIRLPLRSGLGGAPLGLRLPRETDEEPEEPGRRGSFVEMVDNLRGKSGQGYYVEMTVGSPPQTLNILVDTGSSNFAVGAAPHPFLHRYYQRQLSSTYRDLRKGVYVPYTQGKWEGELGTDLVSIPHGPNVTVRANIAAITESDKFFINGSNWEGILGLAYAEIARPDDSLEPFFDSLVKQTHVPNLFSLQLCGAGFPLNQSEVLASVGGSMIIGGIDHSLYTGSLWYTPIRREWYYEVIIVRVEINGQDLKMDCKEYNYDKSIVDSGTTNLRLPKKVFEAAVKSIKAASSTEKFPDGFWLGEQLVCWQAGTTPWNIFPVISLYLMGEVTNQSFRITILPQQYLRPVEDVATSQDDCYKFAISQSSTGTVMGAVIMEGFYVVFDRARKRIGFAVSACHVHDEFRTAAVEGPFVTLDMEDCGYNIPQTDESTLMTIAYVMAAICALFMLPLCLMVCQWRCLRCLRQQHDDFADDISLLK

| Compound | inhibition (Beta-secretase 1 [1]) [%] | IC50 (Beta-secretase 1 [2]) [nM] | inhibition (Beta-secretase 1 [3]) [%] |
| --- | --- | --- | --- |
| O=C(N[C@@H](Cc1ccccc1)[C@H](O)C(=O)Nc1cccc(-c2nn[nH]n2)c1)c1cccc(C(=O)N2COC[C@@H]2c2ccccc2)n1 | 89 | – | – |
| O=C(N[C@@H](Cc1ccccc1)[C@H](O)C(=O)Nc1cccc(-c2nnn[nH]2)c1)c1cc(Cl)cc(C(=O)N2COC[C@@H]2c2ccccc2)n1 | – | 22 | – |
| O=C(N[C@@H](Cc1ccccc1)[C@H](O)C(=O)Nc1cccc(-c2nnn[nH]2)c1)c1cc(Br)cc(C(=O)N2COC[C@@H]2c2ccccc2)n1 | – | 15 | – |
| O=C(N[C@@H](Cc1ccccc1)[C@H](O)C(=O)Nc1cccc(-c2nn[nH]n2)c1)c1cc(Cl)cc(C(=O)N2COC[C@@H]2c2ccc(F)cc2)n1 | 99 | 13 | 91 |
| O=C(N[C@@H](Cc1ccccc1)[C@H](O)C(=O)Nc1cccc(-c2nn[nH]n2)c1)c1cc(I)cc(C(=O)N2COC[C@@H]2c2ccc(F)cc2)n1 | 99 | – | 92 |
| O=C(N[C@@H](Cc1ccccc1)[C@H](O)C(=O)Nc1cccc(-c2nn[nH]n2)c1)c1cc(Cl)cc(C(=O)N2COC[C@@H]2c2ccccc2)n1 | 98 | – | 87 |
| O=C(N[C@@H](Cc1ccccc1)[C@H](O)C(=O)Nc1cccc(-c2nnn[nH]2)c1)c1cc(Br)cc(C(=O)N2COC[C@@H]2c2ccc(F)cc2)n1 | – | 9 | – |
| O=C(N[C@@H](Cc1ccccc1)[C@H](O)C(=O)Nc1cccc(-c2nn[nH]n2)c1)c1cc(I)cc(C(=O)N2COC[C@@H]2c2ccccc2)n1 | 99 | 24 | 86 |
| O=C(N[C@@H](Cc1ccccc1)[C@H](O)C(=O)Nc1cccc(-c2nnn[nH]2)c1)c1cc(I)cc(C(=O)N2COC[C@@H]2c2ccc(F)cc2)n1 | – | 10 | – |
| O=C(N[C@@H](Cc1ccccc1)[C@H](O)C(=O)Nc1cccc(-c2nn[nH]n2)c1)c1cc(Br)cc(C(=O)N2COC[C@@H]2c2ccc(F)cc2)n1 | 99 | – | 93 |
| O=C(N[C@@H](Cc1ccccc1)[C@H](O)C(=O)Nc1cccc(-c2nn[nH]n2)c1)c1cc(Br)cc(C(=O)N2COC[C@@H]2c2ccccc2)n1 | 99 | – | 88 |
